Results taken from patent publication US20230151025A1, “SUBSTITUTED THIAZOLOPYRIDINES, SALTS THEREOF AND THEIR USE AS HERBICIDALLY ACTIVE SUBSTANCES” (Bayer Aktiengesellschaft, priority 2020, published 2023).

Columns and labels:
Type in all cases: in vivo
[1] = test system: Alopecurus myosuroides (ALOMY); experiment: Herbicidal pre-emergence action (A), 1280 g/ha; conditions: visual grading after ca. 3 weeks vs untreated controls, 100% = plants have died off, 0% = as control plants
Procedure, shortened: (§1)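 Visual grading of plant damage in percent (0% as untreated control, 100% dead) was done about 3 weeks after treatment. Compounds, as WP or EC in water with 0.5% additive, had been sprayed at 600 l/ha onto the covering soil of freshly sown sandy loam pots.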

[2] = test system: Amaranthus retroflexus (AMARE); experiment: Herbicidal pre-emergence action (A), 1280 g/ha; conditions: visual grading after ca. 3 weeks vs untreated controls
Procedure, shortened: as §1

[3] = test system: Echinochloa crus-galli (ECHCG); experiment: Herbicidal pre-emergence action (A), 1280 g/ha; conditions: visual grading after ca. 3 weeks vs untreated controls, 100% = plants have died off, 0% = as control plants
Procedure, shortened: as §1

[4] = test system: Kochia scoparia (KCHSC; Bassia scoparia); experiment: Herbicidal pre-emergence action (A), 1280 g/ha; conditions: visual grading after ca. 3 weeks vs untreated controls
Procedure, shortened: as §1

[5] = test system: Lolium rigidum (LOLRI); experiment: Herbicidal pre-emergence action (A), 1280 g/ha; conditions: visual grading after ca. 3 weeks vs untreated controls, 100% = plants have died off, 0% = as control plants
Procedure, shortened: as §1

[6] = test system: Matricaria inodora (MATIN); experiment: Herbicidal pre-emergence action (A), 1280 g/ha; conditions: visual grading after ca. 3 weeks vs untreated controls
Procedure, shortened: as §1

[7] = test system: Poa annua (POAAN); experiment: Herbicidal pre-emergence action (A), 1280 g/ha; conditions: visual grading after ca. 3 weeks vs untreated controls, 100% = plants have died off, 0% = as control plants
Procedure, shortened: as §1

[8] = test system: Setaria viridis (SETVI); experiment: Herbicidal pre-emergence action (A), 1280 g/ha; conditions: visual grading after ca. 3 weeks vs untreated controls
Procedure, shortened: as §1

[9] = test system: Stellaria media (STEME); experiment: Herbicidal pre-emergence action (A), 1280 g/ha; conditions: visual grading after ca. 3 weeks vs untreated controls
Procedure, shortened: as §1

[10] = test system: Veronica persica (VERPE); experiment: Herbicidal pre-emergence action (A), 1280 g/ha; conditions: visual grading after ca. 3 weeks vs untreated controls
Procedure, shortened: as §1

[11] = test system: Alopecurus myosuroides (ALOMY); experiment: Herbicidal post-emergence action (B), 1280 g/ha; conditions: rated visually after about 3 weeks vs untreated controls
Procedure, shortened: (§2)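 Greenhouse-grown weeds at the one-leaf stage received a foliar spray of the formulated compound (WP or EC, 0.5% additive, 600 L/ha). Damage was scored visually after about 3 weeks on a 0–100% scale against untreated plants.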

[12] = test system: Amaranthus retroflexus (AMARE); experiment: Herbicidal post-emergence action (B), 1280 g/ha; conditions: rated visually after about 3 weeks vs untreated controls
Procedure, shortened: as §2

[13] = test system: Kochia scoparia (KCHSC; Bassia scoparia); experiment: Herbicidal post-emergence action (B), 1280 g/ha
Procedure, shortened: as §2

[14] = test system: Matricaria inodora (MATIN); experiment: Herbicidal post-emergence action (B), 1280 g/ha; conditions: rated visually after about 3 weeks vs untreated controls
Procedure, shortened: as §2

[15] = test system: Poa annua (POAAN); experiment: Herbicidal post-emergence action (B), 1280 g/ha; conditions: rated visually after about 3 weeks vs untreated controls
Procedure, shortened: as §2

[16] = test system: Veronica persica (VERPE); experiment: Herbicidal post-emergence action (B), 1280 g/ha
Procedure, shortened: as §2

[17] = test system: Alopecurus myosuroides (ALOMY); experiment: Herbicidal pre-emergence action (C), 320 g/ha; conditions: ca. 3 weeks
Source text: (§3) ABUTH: Abutilon theophrasti AGSTE: Agrostis tenuis ALOMY: Alopecurus myosuroides AMARE Amaranthus retroflexus DIGSA: Digitaria sanguinalis ECHCG: Echinochloa crus-galli KCHSC: Kochia scoparia LOLRI: Lolium rigidum MATIN: Matricaria inodora POAAN: Poa annua POLCO: Polygonum convolvulus SETVI: Setaria viridis STEME: Stellaria media VERPE: Veronica persica VIOTR: Viola tricolor
(§4) Seeds of mono- and dicotyledonous weed plants and crop plants were sown, in plastic or organic planting pots, in sandy loam and covered with soil. The compounds according to the invention, formulated in the form of wettable powders (WP) or as emulsifiable concentrates (EC), were applied to the surface of the covering soil as aqueous suspension or emulsion, with the addition of 0.5% of an additive, at an application rate of 600 l of water/ha (converted).
(§5) Following treatment, the pots were placed in a greenhouse and kept under optimum growth conditions for the test plants. The visual grading of the damage to the test plants was carried out after ca. 3 weeks in comparison to untreated controls (herbicidal effect in percent (%): 100% effect=plants have died off, 0% effect=as control plants).
(§6) Tables C1 to C13 below show the effects of selected compounds of the general formula (I) according to table 1 on various harmful plants and an application rate corresponding to 320 g/ha obtained by the experimental procedure mentioned above.

[18] = test system: Amaranthus retroflexus (AMARE); experiment: Herbicidal pre-emergence action (C), 320 g/ha; conditions: ca. 3 weeks
Source text: as §3, §4, §5, §6

[19] = test system: Echinochloa crus-galli (ECHCG); experiment: Herbicidal pre-emergence action (C), 320 g/ha; conditions: ca. 3 weeks
Source text: as §3, §4, §5, §6

[20] = test system: Lolium rigidum (LOLRI); experiment: Herbicidal pre-emergence action (C), 320 g/ha; conditions: ca. 3 weeks
Source text: as §3, §4, §5, §6

[21] = test system: Matricaria inodora (MATIN); experiment: Herbicidal pre-emergence action (C), 320 g/ha; conditions: ca. 3 weeks
Source text: as §3, §4, §5, §6

[22] = test system: Setaria viridis (SETVI); experiment: Herbicidal pre-emergence action (C), 320 g/ha; conditions: ca. 3 weeks
Source text: as §3, §4, §5, §6

[23] = test system: Veronica persica (VERPE); experiment: Herbicidal pre-emergence action (C), 320 g/ha; conditions: ca. 3 weeks
Source text: as §3, §4, §5, §6

[24] = test system: Echinochloa crus-galli (ECHCG); experiment: Herbicidal post-emergence action (D), 320 g/ha; conditions: ca. 3 weeks
Source text: as §3
(§7) Seeds of mono- and dicotyledonous weed plants and crop plants were sown, in plastic or organic planting pots, in sandy loam, covered with soil and grown in a greenhouse under controlled growth conditions. 2 to 3 weeks after sowing, the test plants were sprayed in the single-leaf stage. The compounds according to the invention, formulated in form of wettable powders (WP) or as emulsifiable concentrates (EC), were sprayed onto the green plant parts as aqueous suspension or emulsion, with the addition of 0.5% of an additive, at an application rate of 600 l of water/ha (converted). The test plants were placed in the greenhouse for ca. 3 weeks under optimum growth conditions, and then the effect of the preparations was assessed visually in comparison with untreated controls (herbicidal effect in percent (%): 100% effect=plants have died off, 0% effect=as control plants).
(§8) Tables D1 to D13 below show the effects of selected compounds of the general formula (I) according to table 1 on various harmful plants and an application rate corresponding to 320 g/ha obtained by the experimental procedure mentioned above.

[25] = test system: Abutilon theophrasti (ABUTH); experiment: Herbicidal pre-emergence action (A), 1280 g/ha; conditions: visual grading after ca. 3 weeks vs untreated controls, 100% = plants have died off, 0% = as control plants
Procedure, shortened: as §1

[26] = test system: Abutilon theophrasti (ABUTH); experiment: Herbicidal post-emergence action (B), 1280 g/ha; conditions: rated visually after about 3 weeks vs untreated controls
Procedure, shortened: as §2

[27] = test system: Echinochloa crus-galli (ECHCG); experiment: Herbicidal post-emergence action (B), 1280 g/ha; conditions: rated visually after about 3 weeks vs untreated controls
Procedure, shortened: as §2

[28] = test system: Setaria viridis (SETVI); experiment: Herbicidal post-emergence action (B), 1280 g/ha; conditions: rated visually after about 3 weeks vs untreated controls
Procedure, shortened: as §2

[29] = test system: Digitaria sanguinalis (DIGSA); experiment: Herbicidal pre-emergence action (A), 1280 g/ha; conditions: visual grading after ca. 3 weeks vs untreated controls, 100% = plants have died off, 0% = as control plants
Procedure, shortened: as §1

[30] = test system: Digitaria sanguinalis (DIGSA); experiment: Herbicidal post-emergence action (B), 1280 g/ha; conditions: rated visually after about 3 weeks vs untreated controls
Procedure, shortened: as §2

[31] = test system: Lolium rigidum (LOLRI); experiment: Herbicidal post-emergence action (B), 1280 g/ha; conditions: one-leaf stage, rated after about 3 weeks vs untreated controls, 100% activity = the plants have died, 0% = like control plants
Procedure, shortened: as §2

[32] = test system: Stellaria media (STEME); experiment: Herbicidal post-emergence action (B), 1280 g/ha
Procedure, shortened: as §2

[33] = test system: Amaranthus retroflexus (AMARE); experiment: Herbicidal post-emergence action (D), 320 g/ha; conditions: ca. 3 weeks
Source text: as §3, §7, §8

[34] = test system: Setaria viridis (SETVI); experiment: Herbicidal post-emergence action (D), 320 g/ha; conditions: ca. 3 weeks
Source text: as §3, §7, §8

[35] = test system: Veronica persica (VERPE); experiment: Herbicidal post-emergence action (D), 320 g/ha; conditions: ca. 3 weeks
Source text: as §3, §7, §8

Row | Compound | ALOMY, herbicidal effect in percent (%) [1] | herbicidal effect AMARE [2] | ECHCG, herbicidal effect in percent (%) [3] | herbicidal effect KCHSC [4] | LOLRI, herbicidal effect in percent (%) [5] | herbicidal effect MATIN [6] | POAAN, herbicidal effect in percent (%) [7] | herbicidal effect SETVI [8] | herbicidal effect STEME [9] | herbicidal effect VERPE [10] | herbicidal activity ALOMY [11] | herbicidal activity AMARE [12] | herbicidal effect KCHSC [13] | herbicidal activity POAAN [15] | herbicidal effect VERPE [16] | herbicidal effect ALOMY [17] | herbicidal effect AMARE [18] | herbicidal effect ECHCG [19] | herbicidal effect LOLRI [20] | herbicidal effect SETVI [22] | other results
1 | Cc1sccc1-c1nc2ncsc2cc1Br [Example I-135] | 90% | 90% | 100% | 90% | 100% | 100% | 100% | 100% | 90% | 90% | 90% | 90% | 90% | 90% | 90% | 100% | 90% | 100% | 100% | 100% | herbicidal activity MATIN [14]: 90%; herbicidal effect MATIN [21]: 80%; herbicidal effect VERPE [23]: 80%; herbicidal effect ECHCG [24]: 80%
2 | Fc1cccc(-c2nc3ncsc3cc2Cl)c1F [Example I-114] | 100% | 90% | 100% | 90% | 100% | 90% | 100% | 100% | 90% | 100% | 90% | 90% | 90% |  | 90% | 90% | 90% | 100% | 100% | 90% | ABUTH, herbicidal effect in percent (%) [25]: 90%; herbicidal activity ABUTH [26]: 90%; herbicidal activity ECHCG [27]: 90%; herbicidal activity SETVI [28]: 90%; herbicidal effect MATIN [21]: 80%; herbicidal effect VERPE [23]: 80%
3 | Fc1cccc(-c2nc3ncsc3cc2Cl)c1 [Example I-068] | 100% | 90% | 100% | 100% | 100% |  | 100% | 100% | 100% | 90% | 90% | 90% | 100% | 100% | 100% | 100% | 90% |  |  | 100% | DIGSA, herbicidal effect in percent (%) [29]: 100%; herbicidal activity ABUTH [26]: 90%; herbicidal activity DIGSA [30]: 100%; LOLRI, activity rated visually (%) [31]: 90%; herbicidal effect STEME [32]: 90%; herbicidal effect VERPE [23]: 80%; herbicidal effect AMARE [33]: 90%
4 | Clc1cc2scnc2nc1-c1ccsc1Cl [Example I-190] | 100% | 90% | 100% | 90% | 100% | 100% | 100% | 100% | 90% | 90% | 100% |  | 90% | 100% | 100% | 100% | 90% | 100% | 100% | 100% | ABUTH, herbicidal effect in percent (%) [25]: 90%; herbicidal activity ECHCG [27]: 100%; herbicidal effect STEME [32]: 90%; herbicidal effect MATIN [21]: 80%; herbicidal effect AMARE [33]: 80%; herbicidal effect ECHCG [24]: 90%; herbicidal effect SETVI [34]: 80%; herbicidal effect VERPE [35]: 80%
5 | Cc1cscc1-c1ccc2scnc2n1 [Example I-134] | 90% |  |  |  | 100% | 90% | 90% | 100% | 100% |  |  | 90% |  | 90% |  |  |  |  |  |  | LOLRI, activity rated visually (%) [31]: 90%
6 | Cc1cc2scnc2nc1-c1ccccc1C(F)(F)F [Example I-064] |  | 100% | 100% | 100% | 100% |  | 100% | 100% | 100% | 90% |  |  | 100% |  | 90% |  |  |  |  |  | ABUTH, herbicidal effect in percent (%) [25]: 90%; DIGSA, herbicidal effect in percent (%) [29]: 100%; herbicidal activity MATIN [14]: 100%; herbicidal effect STEME [32]: 100%
